Positions count from the first letter of the chain named. Where two headings read alike, the source gives them in different places.
How the values were obtained:
[1] = molecular target: T1, FLT3 ITD, F691L (Homo sapiens, UniProt P36888, F691L/ITD); experiment: DiscoverX KINOMEscan competition binding assay, FLT3 ITD, F691L
T1 sequence (P36888 564-993 F691L): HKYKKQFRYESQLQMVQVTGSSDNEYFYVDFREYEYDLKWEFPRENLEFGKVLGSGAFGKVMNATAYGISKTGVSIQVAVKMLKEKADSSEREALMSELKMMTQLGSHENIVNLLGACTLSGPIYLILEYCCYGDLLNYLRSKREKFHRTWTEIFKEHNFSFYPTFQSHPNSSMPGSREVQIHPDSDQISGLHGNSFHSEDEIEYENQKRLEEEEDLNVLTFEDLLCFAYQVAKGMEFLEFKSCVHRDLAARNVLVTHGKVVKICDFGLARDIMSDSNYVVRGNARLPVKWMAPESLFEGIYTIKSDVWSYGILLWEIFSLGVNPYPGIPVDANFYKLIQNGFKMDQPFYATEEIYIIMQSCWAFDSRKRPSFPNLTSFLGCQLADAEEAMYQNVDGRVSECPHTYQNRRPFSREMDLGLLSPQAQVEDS
Excerpt: (§1) Kinase binding data were obtained for various exemplary compounds prepared according to Examples 1-25 using the DiscoverX KINOMEscan® active site-directed competition binding site-directed assay protocol described below. […] As a result, the data report thermodynamic interaction affinities (Kd values), rather than IC50 values that are dependent on ATP concentrations. The assay uses a DNA-tagged version of the protein kinase, and an immobilized ligand bound to a solid support. Compounds that directly or indirectly prevent kinase binding to the immobilized ligand reduce the amount of kinase captured on the solid support, which is detected using an ultra-sensitive qPCR method. Affinity constants reported from the assay have been reported to be independent of the immobilized ligand used that is coupled to the solid support (See supplemental information in Fabian, M. A. et. al., (2005) Nat. Biotechnol. 23, 329-336; Wodicka, L. M. et. al., (2010) Chem. Biol. 17, 1241-1249.)
(§2) Kinase-tagged T7 phage strains were prepared in an E. coli host derived from the BL21 strain. E. coli were grown to log-phase and infected with T7 phage and incubated with shaking at 32° C. until lysis. The lysates were centrifuged and filtered to remove cell debris. The remaining kinases were produced in HEK-293 cells and subsequently tagged with DNA for qPCR detection. […] The liganded beads were blocked with excess biotin and washed with blocking buffer (SeaBlock (Pierce), 1% BSA, 0.05% Tween 20, 1 mM DTT) to remove unbound ligand and to reduce non-specific binding. […] Test compounds were prepared as 111× stocks in 100% DMSO. Kds were determined using an 11-point 3-fold compound dilution series with three DMSO control points. […] The compounds were then diluted directly into the assays such that the final concentration of DMSO was 0.9%. All reactions were performed in polypropylene 384-well plates. Each was a final volume of 0.02 mL. […] The kinase concentration in the eluates was measured by qPCR.
(§3) Binding constants (Kds) were calculated with a standard dose-response curve using the Hill equation. […]

[2] = molecular target: T2, FLT3 D835V (Homo sapiens, UniProt P36888, D835V); experiment: DiscoverX KINOMEscan competition binding assay, FLT3 D835V
T2 construct: purchased DiscoverX (KINOMEscan); host or cells: E. coli (T7 phage) or HEK-293
T2 sequence (P36888 27-993 D835V): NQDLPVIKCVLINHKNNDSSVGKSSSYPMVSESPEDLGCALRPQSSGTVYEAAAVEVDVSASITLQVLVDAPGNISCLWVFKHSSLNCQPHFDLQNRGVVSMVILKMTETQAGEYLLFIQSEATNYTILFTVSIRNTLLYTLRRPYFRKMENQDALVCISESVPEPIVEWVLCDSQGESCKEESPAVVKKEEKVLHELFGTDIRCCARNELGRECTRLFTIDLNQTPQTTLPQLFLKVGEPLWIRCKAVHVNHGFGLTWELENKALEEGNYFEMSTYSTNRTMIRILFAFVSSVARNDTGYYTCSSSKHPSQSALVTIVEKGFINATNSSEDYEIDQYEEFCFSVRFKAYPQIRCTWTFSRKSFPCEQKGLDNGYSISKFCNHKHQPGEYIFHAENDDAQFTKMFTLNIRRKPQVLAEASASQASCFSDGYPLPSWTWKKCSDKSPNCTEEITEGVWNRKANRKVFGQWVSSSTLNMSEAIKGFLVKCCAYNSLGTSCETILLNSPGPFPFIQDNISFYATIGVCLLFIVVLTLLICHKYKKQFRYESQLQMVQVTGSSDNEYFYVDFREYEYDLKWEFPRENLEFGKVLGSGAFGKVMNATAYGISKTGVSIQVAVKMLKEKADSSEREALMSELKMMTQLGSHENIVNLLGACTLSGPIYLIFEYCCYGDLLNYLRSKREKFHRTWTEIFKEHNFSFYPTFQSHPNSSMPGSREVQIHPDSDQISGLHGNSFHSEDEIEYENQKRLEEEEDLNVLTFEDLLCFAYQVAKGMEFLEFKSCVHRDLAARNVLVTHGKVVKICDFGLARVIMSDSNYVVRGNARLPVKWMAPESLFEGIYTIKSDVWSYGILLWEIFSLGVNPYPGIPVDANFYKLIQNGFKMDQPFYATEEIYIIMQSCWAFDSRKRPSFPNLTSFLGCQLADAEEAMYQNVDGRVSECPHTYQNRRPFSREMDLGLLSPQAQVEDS
Excerpt: as §1, §2, §3

[3] = molecular target: T3, FLT3 ITD (Homo sapiens, UniProt P36888, ITD); experiment: DiscoverX KINOMEscan competition binding assay, FLT3 ITD
T3 sequence (P36888 564-993): T1 sequence (P36888 564-993 F691L) with L128F
Excerpt: as §1, §2, §3

[4] = molecular target: T4, FLT3 Autoinh. (Homo sapiens, UniProt P36888); experiment: DiscoverX KINOMEscan competition binding assay, FLT3 Autoinh.
T4 construct: purchased DiscoverX (KINOMEscan); host or cells: E. coli (T7 phage) or HEK-293
T4 sequence (P36888 564-993 limits assumed): T1 sequence (P36888 564-993 F691L) with L128F
Excerpt: as §1, §2, §3

COc1cc2ncc(-c3cccc(N[C@@H]4CCNC4)n3)n2nc1C1CC1 [Compound 97, (R)-6-(6-cyclopropyl-7-methoxyimidazo[1,2-b]pyridazin-3-yl)-N-(pyrrolidin-3-yl)pyridin-2-amine]
Kd ([1]; read-out: FLT3 ITD, F691L Kd): 0.19 nM
Kd [2]: 0.067 nM
Kd ([3]; read-out: FLT3 ITD Kd): 0.19 nM
Kd [4]: 13 nM

COc1cc2ncc(-c3cccc(N[C@H]4CNC[C@@H]4F)n3)n2nc1C1CC1 [Compound 96, 6-(6-cyclopropyl-7-methoxyimidazo[1,2-b]pyridazin-3-yl)-N-((3S,4S)-4-fluoropyrrolidin-3-yl)pyridin-2-amine]
Kd [1]: 0.37 nM
Kd [2]: 0.12 nM
Kd [3]: 1 nM
Kd [4]: 11 nM

COc1cc2ncc(-c3cccc(N[C@H]4CNCC[C@@H]4F)n3)n2nc1C1CC1 [Compound 102, 6-(6-cyclopropyl-7-methoxyimidazo[1,2-b]pyridazin-3-yl)-N-((3S,4S)-4-fluoropiperidin-3-yl)pyridin-2-amine]
Kd ([1]; read-out: FLT3 ITD, F691L Kd): 0.14 nM
Kd [2]: 0.11 nM
Kd ([3]; read-out: FLT3 ITD Kd): 0.54 nM
Kd [4]: 17 nM

— patent publication US12534469B2 (CHILDREN'S HOSPITAL MEDICAL CENTER, priority 2020, dated 2026)
